Measurements as given in the supplement of paper PMC10883282.
Counter-ions that a name gives are not always drawn. ± gives the standard deviation of the averaged measurements.

Test system: SK-LMS-1
Assay: relative viability vs DMSO control (72 h) (fraction); higher = more viable cells
Method in brief: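 ATPLite readings, expressed as percent growth and averaged over up to triplicate wells, provided relative viability. Before reading, sarcoma cell lines seeded in 384-well plates to reach 80–90% confluence received 2.5 µl of serially diluted compound after 24 h, from source plates of 10 mM to 0.0002 mM. Plates were held 72 h at 37 °C, 5% CO2, with 0.1% DMSO as vehicle and a 5 µM positive control. The data were rescaled to 1 for full and 0 for none.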

`CCCS(=O)(=O)Nc1ccc(F)c(C(=O)c2c[nH]c3ncc(-c4ccc(Cl)cc4)cc23)c1F` [Vemurafenib] showed a relative viability (0.00017 µM) of 0.994 ± 0.053, a relative viability (0.00051 µM) of 0.988 ± 0.079 and a relative viability (0.00152 µM) of 1.01 ± 0.081. It also gave a relative viability (0.00457 µM) of 1.06 ± 0.053, a relative viability (0.01372 µM) of 1.03 ± 0.028 and a relative viability (0.04115 µM) of 0.979 ± 0.06. For the same compound, the relative viability (0.1235 µM) was 1.02 ± 0.013, the relative viability (0.3704 µM) was 0.959 ± 0.01 and the relative viability (1.111 µM) was 0.855 ± 0.033. The relative viability (3.333 µM) was 0.667 ± 0.018 and the relative viability (10 µM) was 0.697 ± 0.1.
For `COCc1c(-c2cc3cc(C)cc(OC)c3s2)c2c(N)ncnn2c1CN1CCNC(=O)C1` [Rogaratinib], the relative viability (0.00017 µM) was 1.01 ± 0.034, the relative viability (0.00051 µM) was 0.992 ± 0.026 and the relative viability (0.00152 µM) was 1.02 ± 0.022. The relative viability (0.00457 µM) was 1.01 ± 0.044, the relative viability (0.01372 µM) was 0.995 ± 0.022 and the relative viability (0.04115 µM) was 0.992 ± 0.035. It also gave a relative viability (0.1235 µM) of 1 ± 0.01, a relative viability (0.3704 µM) of 0.975 ± 0.017 and a relative viability (1.111 µM) of 0.96 ± 0.036. For the same compound, the relative viability (3.333 µM) was 0.76 ± 0.019 and the relative viability (10 µM) was 0.589 ± 0.017.
`C=CC(=O)N1CCC([C@@H]2CCNc3c(C(N)=O)c(-c4ccc(Oc5ccccc5)cc4)nn32)CC1` [Zanubrutinib] was tested, and the relative viability (0.00017 µM) was 0.996 ± 0.023, the relative viability (0.00051 µM) was 1.04 ± 0.055 and the relative viability (0.00152 µM) was 1.03 ± 0.05. It also gave a relative viability (0.00457 µM) of 1.051 ± 0.0069, a relative viability (0.01372 µM) of 1.01 ± 0.06 and a relative viability (0.04115 µM) of 1.05 ± 0.015. For the same compound, the relative viability (0.1235 µM) was 1.03 ± 0.025, the relative viability (0.3704 µM) was 1.08 ± 0.021 and the relative viability (1.111 µM) was 1.06 ± 0.012. For the same compound, the relative viability (3.333 µM) was 1.07 ± 0.012 and the relative viability (10 µM) was 1.05 ± 0.04.
In the case of `COc1cccc2c1C(=O)c1c(O)c3c(c(O)c1C2=O)C[C@@](O)(C(=O)CO)C[C@@H]3O[C@H]1C[C@H](N)[C@H](O)[C@H](C)O1` [Doxorubicin Hydrochloride], the relative viability (0.00017 µM) is reported as 0.998 ± 0.032, the relative viability (0.00051 µM) is reported as 1.02 ± 0.038 and the relative viability (0.00152 µM) is reported as 1.02 ± 0.044. The relative viability (0.00457 µM) was 1.03 ± 0.024, the relative viability (0.01372 µM) was 0.967 ± 0.047 and the relative viability (0.04115 µM) was 0.781 ± 0.011. For the same compound, the relative viability (0.1235 µM) was 0.649 ± 0.046, the relative viability (0.3704 µM) was 0.313 ± 0.025 and the relative viability (1.111 µM) was 0.209 ± 0.069. The relative viability (3.333 µM) was 0.296 ± 0.0043 and the relative viability (10 µM) was 0.293 ± 0.0053.
For `CC(C)NC(=O)C1CCC(n2c(NC(=O)c3ccc(F)cc3)nc3ccc(CN4CCC(C(C)(C)O)CC4)cc32)CC1` (centres undefined) [Belizatinib], the relative viability (0.00017 µM) was 1.05 ± 0.024, the relative viability (0.00051 µM) was 1.06 ± 0.021 and the relative viability (0.00152 µM) was 1.06 ± 0.039. For the same compound, the relative viability (0.00457 µM) was 1.07 ± 0.04, the relative viability (0.01372 µM) was 1.07 ± 0.069 and the relative viability (0.04115 µM) was 1.11 ± 0.046. The relative viability (0.1235 µM) was 1.09 ± 0.023, the relative viability (0.3704 µM) was 1.04 ± 0.074 and the relative viability (1.111 µM) was 0.949 ± 0.05. It also gave a relative viability (3.333 µM) of 0.758 ± 0.018 and a relative viability (10 µM) of 0.38 ± 0.021.
`COc1cc2/c(=N/c3ccc(Br)cc3F)nc[nH]c2cc1OCC1CCN(C)CC1` [Vandetanib] showed a relative viability (0.00017 µM) of 0.994 ± 0.015, a relative viability (0.00051 µM) of 1.01 ± 0.029 and a relative viability (0.00152 µM) of 1.02 ± 0.049. It also gave a relative viability (0.00457 µM) of 1.08 ± 0.015, a relative viability (0.01372 µM) of 1.02 ± 0.09 and a relative viability (0.04115 µM) of 1.05 ± 0.039. It also gave a relative viability (0.1235 µM) of 1.01 ± 0.015, a relative viability (0.3704 µM) of 1.03 ± 0.074 and a relative viability (1.111 µM) of 0.939 ± 0.011. For the same compound, the relative viability (3.333 µM) was 0.484 ± 0.0052 and the relative viability (10 µM) was 0.103 ± 0.014.
Work on `C[C@@H]1CCN(C(=O)CC#N)C[C@@H]1N(C)c1ncnc2[nH]ccc12` [Tofacitinib] yielded a relative viability (0.00017 µM) of 1.08 ± 0.053, a relative viability (0.00051 µM) of 1.05 ± 0.057 and a relative viability (0.00152 µM) of 1.1 ± 0.057. For the same compound, the relative viability (0.00457 µM) was 1.11 ± 0.042, the relative viability (0.01372 µM) was 1.09 ± 0.064 and the relative viability (0.04115 µM) was 1.07 ± 0.031. For the same compound, the relative viability (0.1235 µM) was 1.062 ± 0.0089, the relative viability (0.3704 µM) was 1.07 ± 0.022 and the relative viability (1.111 µM) was 1.07 ± 0.039. It also gave a relative viability (3.333 µM) of 1.03 ± 0.039 and a relative viability (10 µM) of 0.902 ± 0.056.
For `Cn1cnc2c(F)c(Nc3ccc(Br)cc3F)c(C(=O)NOCCO)cc21` [Binimetinib], the relative viability (0.00017 µM) was 1.11 ± 0.03, the relative viability (0.00051 µM) was 1.16 ± 0.045 and the relative viability (0.00152 µM) was 1.13 ± 0.034. It also gave a relative viability (0.00457 µM) of 1.07 ± 0.073, a relative viability (0.01372 µM) of 1 ± 0.011 and a relative viability (0.04115 µM) of 0.879 ± 0.01. It also gave a relative viability (0.1235 µM) of 0.725 ± 0.039, a relative viability (0.3704 µM) of 0.646 ± 0.038 and a relative viability (1.111 µM) of 0.61 ± 0.016. The relative viability (3.333 µM) was 0.484 ± 0.011 and the relative viability (10 µM) was 0.375 ± 0.028.
In the case of `Cc1nc(-c2cn3c(n2)-c2ccc(-c4cnn(C(C)(C)C(N)=O)c4)cc2OCC3)n(C(C)C)n1` [Taselisib], the relative viability (0.00017 µM) is reported as 0.978 ± 0.027, the relative viability (0.00051 µM) is reported as 1.035 ± 0.0056 and the relative viability (0.00152 µM) is reported as 0.993 ± 0.043. The relative viability (0.00457 µM) was 0.9916 ± 0.0093, the relative viability (0.01372 µM) was 0.949 ± 0.021 and the relative viability (0.04115 µM) was 0.833 ± 0.017. For the same compound, the relative viability (0.1235 µM) was 0.739 ± 0.018, the relative viability (0.3704 µM) was 0.676 ± 0.011 and the relative viability (1.111 µM) was 0.6 ± 0.023. The relative viability (3.333 µM) was 0.454 ± 0.012 and the relative viability (10 µM) was 0.315 ± 0.016.
